Test results taken from patent US10123861B2, “Bag for packaging diluted animal semen suitable for artificial insemination, in particular of porcine species; and system comprising same” (IMV TECHNOLOGIES, priority 2014, dated 2018).

Assay: Amount of triclosan released from the bag into the dilution extender (LC-MS-MS)
Type: physicochemical
Conditions: bag of Example 3; for Amount of triclosan released into the dose / Proportion of triclosan released into the dose: five days, 17° C.; for Amount of triclosan released into the dose: full dose 70 ml; for Proportion of triclosan released into the dose: relative to approximately 532 μg in parts facing the pouch
From the text: A description will now be given of the trials with the bag of Example 3 to determine the amount of triclosan released into the dose of diluted semen such as 27 contained in the pouch such as 14 of that bag.
To simplify the trials, it was not a dose of diluted semen which was preserved in the bag but only dilution extender.
In this case, the dilution extender 53 (hereinafter “extender A”) and a conventional dilution extender containing an antibiotic (hereinafter “extender B”) were used.
One bag of Example 3 is filled with a dose of extender A and one bag of Example 3 with a dose of extender B.
Next the bags are left to rest for five days in the usual preservation conditions, that is to say 17° C. in horizontal position.
Next, the extender contained in each bag is analyzed, in order to determine the concentration of triclosan.
This analysis is made by liquid chromatography tandem mass spectrometry (LC-MS-MS method).
Based on the concentrations obtained, the amount of triclosan released is determined in a full dose provided to be contained in the bag, that is to say 70 ml.
It will be noted that the weight of triclosan taken into account in the sheets such as 11 and 12 of the bag of Example 3 for calculating the proportion released is not the weight of triclosan in the entirety of these sheets, but only in the parts facing the pouch such as 14. Here, these parts weigh approximately 1.835 g (determined after cutting out and weighing). As there are 29 mg of triclosan for 100 g of sheet. The amount of triclosan contained in these parts is approximately 532 μg.

[1] = Extender A (without antibiotic)
[2] = Extender B (containing an antibiotic)

Oc1cc(Cl)ccc1Oc1ccc(Cl)cc1Cl [triclosan]
Amount of triclosan released into the dose [1]: 2.7 µg
Proportion of triclosan released into the dose [1]: 0.5%
Amount of triclosan released into the dose [2]: 1.9 µg
Proportion of triclosan released into the dose [2]: 0.35%
amounts released into the dilution extenders (comment on the release results): around 1%
